Where two headings read alike, the source gives them in different places.
Experiments:
[1] = Turbidity, derived count rate of scattered light; assay type: physicochemical; settings: for Count Rate: derived count rate of scattered light (turbidity); for Log10 Count Rate: turbidity, derived count rate of scattered light, data of Figure 2D
[2] = Turbidity, derived count rate of scattered light; assay type: physicochemical; settings: for Count Rate / kcps: derived count rate of scattered light at 633 nm, 173°, from zeta-potential measurement, 0.1 mg/mL in 1 mM KCl after 1 d at 1 mg/mL in PBS, turbidity / microscopic aggregation, mean of triplicate; for Log Count Rate: log of derived count rate
How it was run: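 Samples: 1 mg/mL in PBS pH 7.4 (from DMSO), 1 d at RT, then diluted in 1 mM KCl immediately before measurement. Triplicates, two independent runs averaged.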

[3] = assay type: physicochemical; parameters: key to Fibril / Fibril Formation / TEM 2cat / Fibril: 1 = fibrils present; 0 non-fibrillar structures; settings: for Fibril / Fibril Formation: 1 mg/mL, uranyl acetate stain, qualitative
[4] = Zeta-potential measurement; assay type: physicochemical
How it was run: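 Readout: zeta potential (mV) derived by Smoluchowski from measured electrophoretic mobility. Preformed aggregates (1 mg/mL peptide, PBS pH 7.4, RT for 1 d) were diluted into dilute KCl electrolyte (1 mM) shortly before analysis.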

[5] = Log10 of derived count rate of scattered light (turbidity)
[6] = turbidity, Log10 of derived count rate of scattered light, Figure 3A source data
[7] = turbidity, log10 of derived count rate of scattered light
[8] = TEM, 1 = fibrils present, 0 = non-fibrillar
[9] = TEM, 1 = fibrils present, 0 = non-fibrillar structures
[10] = category: fibrils present or non-fibrillar
[11] = zeta-potential of peptide, source data of Figure 2C
[12] = zeta-potential of the peptide assemblies, mean, Figure 3A source data
[13] = FigS12 panel A, fibril category by TEM

For QCKIKQIINM, the “Count Rate” value [1] was 20551.06667, the “Log10 Count Rate” value [1] was 4.313 and the “Log10 Count Rate” value [2, 5] was 4.313. For the same substance, the “Count Rate / kcps” value [2] was 20551 kcps, the “Log10 Count Rate” value [2, 6] was 4.313 and the “Log10 Count Rate” value [2, 7] was 4.313. The “TEM 2cat” value ([3]; Fig S10 panel D) was 1, the “Fibril / Fibril Formation” value ([3]; TEM) was 1 and the Fibril [3, 8] was 1. For the same substance, the Fibril [3, 9] was 1, the “TEM 2cat” value [3, 10] was 1 and the Zeta-Pot. [4] was 10.4. For the same substance, the “Zeta-Potential / mV” value [4, 11] was 9.992 mV and the “Zeta-Potential / mV” value [4, 12] was 10.4 mV.
With QCKIKQIINMWQ [reference compound] the “Count Rate” value [1] was 2602, the “Log10 Count Rate” value [1] was 3.415 and the “Log Count Rate” value ([2]; Fig S8 panels A, C, asymmetric log errors) was 3.415. The “Log Count Rate” value ([2]; Fig S8 panels B, D) was 3.415, the “Count Rate” value ([2]; Fig S8 panels B, D, turbidity, derived count rate of scattered light) was 2602.27 and the “Log10 Count Rate” value [2, 5] was 3.415. The “Zeta Count Rate Category” value ([2]; category 1 / 0, no key given) was 1, the “Zeta Count Rate Category” value ([2]; category 1 or 0 from count rate, key not given) was 1 and the “Zeta Count Rate / kcps” value ([2]; derived count rate of scattered light) was 2602 kcps. For the same substance, the “Count Rate / kcps” value [2] was 2606 kcps, the “Zeta Count Rate / kcps” value ([2]; derived count rate of scattered light, mean, std deviation in next column) was 2602 kcps and the “Zeta Count Rate / kcps” value ([2]; derived count rate of scattered light, mean, std deviation in separate column) was 2602 kcps. For the same substance, the “Log10 Count Rate” value ([2]; logarithm of count rate in kcps) was 3.415, the “Log10 Count Rate” value [2, 6] was 3.415 and the “Log10 Count Rate” value [2, 7] was 3.415. The “TEM 2cat” value ([3]; Fig S10 panel D) was 1, the Fibril ([3]; Fig S10 panel E) was 1 and the “TEM: 1= fibrils, 0= aggregates (micelle), 0.5 = aggregates and fibrils, -1 = nothing obersved, STD prep” value ([3]; STD prep) was 0.5. The “Fibril / Fibril Formation” value ([3]; TEM) was 1, the Fibril [3, 8] was 1 and the Fibril [3, 9] was 1. The “TEM 2cat” value [3, 10] was 1, the “Zeta Pot. / mV” value [4] was 6.643 mV and the “Zeta category ( +1 = if > 4 mV;-1 = if < -4 mV; 0 = -4mV to 4 mV)” value [4] was 1 (+1 = if > 4 mV). The Zeta-Pot. [4] was 6.643, the “Zeta category ( +1 = if > 4 mV;-1 = if < -4 mV; 0 = -4mV to 4 mV)” value ([4]; category from zeta potential) was 1 (+1 = if > 4 mV) and the “Zeta Pot. / mV” value ([4]; mean, Std Zeta in next column) was 6.643 mV. For the same substance, the “Zeta Pot. / mV” value ([4]; mean, Std in separate column) was 6.643 mV, the “Zeta-pot. / mV” value ([4]; zeta potential of peptide, Fig S15 source data) was 6.643 mV and the “Zeta-Potential / mV” value [4, 11] was 7.192 mV. The “Zeta-Potential / mV” value [4, 12] was 6.64 mV.
For RGDKIRGDKI, the “Count Rate” value [1] was 285.8, the “Log10 Count Rate” value [1] was 2.456 and the “Log10 Count Rate” value [2, 5] was 2.456. The “Count Rate / kcps” value [2] was 286 kcps, the “Log10 Count Rate” value [2, 6] was 2.456 and the “Log10 Count Rate” value [2, 7] was 2.456. For the same substance, the “TEM 2cat” value ([3]; Fig S10 panel D) was 0, the Fibril ([3]; Fig S10 panel E) was 0 and the “TEM 2cat” value [3, 13] was 0. The Fibril ([3]; FigS12 panel B, TEM) was 0, the “Fibril / Fibril Formation” value ([3]; TEM) was 0 and the Fibril [3, 8] was 0. For the same substance, the Fibril [3, 9] was 0, the Zeta-Pot. [4] was -13.57 and the “Zeta-Potential / mV” value [4, 11] was -7.422 mV. For the same substance, the “Zeta-Potential / mV” value [4, 12] was -13.57 mV.
In the case of RGECKFKFQF, the “Count Rate” value [1] is reported as 219.3, the “Log10 Count Rate” value [1] is reported as 2.341 and the “Log10 Count Rate” value [2, 5] is reported as 2.341. The “Count Rate / kcps” value [2] was 219 kcps, the “Log10 Count Rate” value [2, 6] was 2.341 and the “Log10 Count Rate” value [2, 7] was 2.341. The “TEM 2cat” value ([3]; Fig S10 panel D) was 1, the Fibril ([3]; Fig S10 panel E) was 1 and the “Fibril / Fibril Formation” value ([3]; TEM) was 1. The Fibril [3, 8] was 1, the Fibril [3, 9] was 1 and the “TEM 2cat” value [3, 10] was 1. The Zeta-Pot. [4] was 23.97, the “Zeta-Potential / mV” value [4, 11] was 22.32 mV and the “Zeta-Potential / mV” value [4, 12] was 23.97 mV.
For RGEKIKIQINM, the “Count Rate” value [1] was 594.6, the “Log10 Count Rate” value [1] was 2.774 and the “Log10 Count Rate” value [2, 5] was 2.774. For the same substance, the “Count Rate / kcps” value [2] was 595 kcps, the “Log10 Count Rate” value [2, 6] was 2.774 and the “Log10 Count Rate” value [2, 7] was 2.774. The “TEM 2cat” value ([3]; Fig S10 panel D) was 1, the Fibril ([3]; Fig S10 panel E) was 1 and the “Fibril / Fibril Formation” value ([3]; TEM) was 1. The Fibril [3, 8] was 1, the Fibril [3, 9] was 1 and the “TEM 2cat” value [3, 10] was 1. The Zeta-Pot. [4] was 15.3, the “Zeta-Potential / mV” value [4, 11] was 16.35 mV and the “Zeta-Potential / mV” value [4, 12] was 15.3 mV.
For RLRLTLC, the “Count Rate” value [1] was 125.6, the “Log10 Count Rate” value [1] was 2.0991 and the “Log10 Count Rate” value [2, 5] was 2.0991. The “Count Rate / kcps” value [2] was 126 kcps, the “Log10 Count Rate” value [2, 6] was 2.0991 and the “Log10 Count Rate” value [2, 7] was 2.0991. The “TEM 2cat” value ([3]; Fig S10 panel D) was 1, the Fibril ([3]; Fig S10 panel E) was 1 and the “TEM 2cat” value [3, 13] was 1. For the same substance, the Fibril ([3]; FigS12 panel B, TEM) was 1, the “Fibril / Fibril Formation” value ([3]; TEM) was 1 and the Fibril [3, 8] was 1. The Fibril [3, 9] was 1, the Zeta-Pot. [4] was 19.67 and the “Zeta-Potential / mV” value [4, 11] was 20.73 mV. For the same substance, the “Zeta-Potential / mV” value [4, 12] was 19.67 mV.
In the case of RPRGLLLGNLR, the “Count Rate” value [1] is reported as 210.1, the “Log10 Count Rate” value [1] is reported as 2.322 and the “Log10 Count Rate” value [2, 5] is reported as 2.322. The “Count Rate / kcps” value [2] was 210 kcps, the “Log10 Count Rate” value [2, 6] was 2.322 and the “Log10 Count Rate” value [2, 7] was 2.322. The “TEM 2cat” value ([3]; Fig S10 panel D) was 0, the “TEM 2cat” value [3, 13] was 0 and the Fibril ([3]; FigS12 panel B, TEM) was 0. The “Fibril / Fibril Formation” value ([3]; TEM) was 0, the Fibril [3, 8] was 0 and the Fibril [3, 9] was 0. The Zeta-Pot. [4] was -8.15, the “Zeta-Potential / mV” value [4, 11] was -5.002 mV and the “Zeta-Potential / mV” value [4, 12] was -8.15 mV.
With SISISRRI the “Count Rate” value [1] was 25.27, the “Log10 Count Rate” value [1] was 1.403 and the “Log10 Count Rate” value [2, 5] was 1.403. The “Count Rate / kcps” value [2] was 25 kcps, the “Log10 Count Rate” value [2, 6] was 1.403 and the “Log10 Count Rate” value [2, 7] was 1.403. For the same substance, the “TEM 2cat” value ([3]; Fig S10 panel D) was 0, the Fibril ([3]; Fig S10 panel E) was 0 and the “TEM 2cat” value [3, 13] was 0. For the same substance, the Fibril ([3]; FigS12 panel B, TEM) was 0, the “Fibril / Fibril Formation” value ([3]; TEM) was 0 and the Fibril [3, 8] was 0. For the same substance, the Fibril [3, 9] was 0, the Zeta-Pot. [4] was -17 and the “Zeta-Potential / mV” value [4, 11] was -9.316 mV. For the same substance, the “Zeta-Potential / mV” value [4, 12] was -17 mV.
For TKTLTKTL, the “Count Rate” value [1] was 514.6, the “Log10 Count Rate” value [1] was 2.711 and the “Log10 Count Rate” value [2, 5] was 2.711. The “Count Rate / kcps” value [2] was 515 kcps, the “Log10 Count Rate” value [2, 6] was 2.711 and the “Log10 Count Rate” value [2, 7] was 2.711. For the same substance, the “TEM 2cat” value ([3]; Fig S10 panel D) was 0, the “TEM 2cat” value [3, 13] was 0 and the Fibril ([3]; FigS12 panel B, TEM) was 0. The “Fibril / Fibril Formation” value ([3]; TEM) was 0, the Fibril [3, 8] was 0 and the Fibril [3, 9] was 0. For the same substance, the Zeta-Pot. [4] was -25.1, the “Zeta-Potential / mV” value [4, 11] was -13.63 mV and the “Zeta-Potential / mV” value [4, 12] was -25.1 mV.

Source: PMC10447463, “Data-mining unveils structure–property–activity correlation of viral infectivity enhancing self-assembling peptides” (Nature Communications, 2023)
